Measurements as given in patent US8309546B2, “Morpholinopurine derivatives” (Daiichi Sankyo Company, Limited, priority 2008, dated 2012).

Columns and labels:
[1] = test system: Akt (threonine 308) phosphorylation in AN3CA tumor; assay: Akt phosphorylation inhibition assay in xenograft; type: in vivo, female nude mouse; details: Mus musculus, AN3-CA, oral, 6 hr after dosing
How it was run: (§1)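 AN3CA human endometrial cancer cells grown as subcutaneous xenografts in female nude mice; compound dosed orally at a set concentration, tumors excised after a set time. Tumor lysates at equal protein were western blotted for p-Akt(T308) and p-S6(S235/236). Inhibition (%) = 100−100×(treated/untreated phospho signal).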

[2] = target: PI3Kα (Homo sapiens, UniProt P42336); assay: PI3K kinase activity inhibition assay; type: biochemical; details: Kinase-Glo Plus ATP detection, read-out: IC50 against PI3K
PI3Kα, sequence (P42336 whole entry, species assumed): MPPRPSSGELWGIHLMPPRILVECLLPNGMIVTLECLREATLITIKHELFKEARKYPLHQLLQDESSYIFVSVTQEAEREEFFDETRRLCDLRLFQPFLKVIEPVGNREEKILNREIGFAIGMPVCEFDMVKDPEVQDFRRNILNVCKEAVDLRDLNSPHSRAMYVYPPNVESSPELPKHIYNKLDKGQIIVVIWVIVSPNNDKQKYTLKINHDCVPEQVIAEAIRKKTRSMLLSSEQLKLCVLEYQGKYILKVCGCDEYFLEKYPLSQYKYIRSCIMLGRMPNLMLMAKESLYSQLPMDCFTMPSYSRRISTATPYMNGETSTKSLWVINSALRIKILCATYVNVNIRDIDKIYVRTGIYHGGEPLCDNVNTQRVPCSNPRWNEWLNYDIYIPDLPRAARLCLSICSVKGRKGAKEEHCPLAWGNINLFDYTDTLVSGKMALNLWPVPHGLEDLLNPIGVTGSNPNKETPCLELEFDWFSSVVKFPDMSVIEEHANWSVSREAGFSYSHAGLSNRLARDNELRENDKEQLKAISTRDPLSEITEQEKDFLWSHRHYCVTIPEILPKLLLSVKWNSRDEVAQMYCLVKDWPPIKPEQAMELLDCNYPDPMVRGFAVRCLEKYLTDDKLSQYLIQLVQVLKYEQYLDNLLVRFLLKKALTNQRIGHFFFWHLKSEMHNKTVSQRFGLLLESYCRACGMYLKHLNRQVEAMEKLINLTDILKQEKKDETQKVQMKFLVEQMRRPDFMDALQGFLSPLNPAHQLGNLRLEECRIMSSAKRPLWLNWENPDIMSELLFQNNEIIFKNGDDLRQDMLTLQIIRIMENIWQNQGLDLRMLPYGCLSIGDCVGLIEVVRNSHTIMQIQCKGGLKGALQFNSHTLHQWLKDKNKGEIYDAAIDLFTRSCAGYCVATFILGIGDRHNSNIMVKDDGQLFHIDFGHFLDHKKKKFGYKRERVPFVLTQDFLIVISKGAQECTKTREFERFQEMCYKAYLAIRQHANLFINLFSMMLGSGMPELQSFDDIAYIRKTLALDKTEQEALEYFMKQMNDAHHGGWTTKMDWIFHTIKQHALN
PI3Kα, sequence (P27986 whole entry partner, species assumed): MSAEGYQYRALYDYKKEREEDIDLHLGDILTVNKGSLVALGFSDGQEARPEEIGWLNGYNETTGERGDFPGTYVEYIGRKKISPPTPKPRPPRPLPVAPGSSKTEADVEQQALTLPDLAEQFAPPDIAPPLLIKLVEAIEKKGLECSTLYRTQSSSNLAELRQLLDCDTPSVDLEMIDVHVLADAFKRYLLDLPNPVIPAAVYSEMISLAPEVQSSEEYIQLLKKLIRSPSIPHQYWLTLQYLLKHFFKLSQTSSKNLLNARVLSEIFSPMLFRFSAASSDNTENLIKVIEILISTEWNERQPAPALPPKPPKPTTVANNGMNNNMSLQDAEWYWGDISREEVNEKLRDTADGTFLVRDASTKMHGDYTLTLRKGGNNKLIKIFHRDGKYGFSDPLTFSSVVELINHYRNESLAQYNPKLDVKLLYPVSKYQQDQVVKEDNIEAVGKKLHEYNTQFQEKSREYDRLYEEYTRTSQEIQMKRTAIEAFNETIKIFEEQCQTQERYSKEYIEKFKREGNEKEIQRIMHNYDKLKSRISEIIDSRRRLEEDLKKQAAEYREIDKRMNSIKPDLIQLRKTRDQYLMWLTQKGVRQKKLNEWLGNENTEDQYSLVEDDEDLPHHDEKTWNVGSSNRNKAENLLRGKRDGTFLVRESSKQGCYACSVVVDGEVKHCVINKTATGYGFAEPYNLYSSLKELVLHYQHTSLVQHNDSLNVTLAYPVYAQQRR
How it was run: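 PI3Kα (50 nM solution) was reacted with 30 μM ATP and 45 μM PIP2 solutions, each in HEPES pH 7.4 with MgCl2 and DTT, for 2 h at room temperature. Remaining ATP was measured by Kinase-Glo Plus luminescence, and inhibition was derived from ATP consumed. IC50 was taken from curve fitting of the serial dilutions.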

[3] = test system: human endometrial cancer cell strain AN3CA; assay: Cell growth inhibition test (MTT), AN3CA; type: cell-based; details: AN3-CA, 72 h, 3 days culture, read-out: concentration exhibiting anti-cell effect (GI50)
How it was run: (§2)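 Living cells were counted by MTT reduction (4 h; formazan dissolved in DMSO, A540) after 3-day compound exposure at 37° C, 5% CO2. Seeding was 5000 (AN3CA), 1000 (IGROV1) or 5000 (HT29) cells/well, dosing the following day. Growth rate T/C % used pre-dose baseline; GI50 interpolated at 50%.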

[4] = test system: S6 (serine 235 and 236) phosphorylation in AN3CA tumor; assay: S6 phosphorylation inhibition assay in xenograft; type: in vivo, female nude mouse; details: Mus musculus, AN3-CA, oral, 6 hr after dosing
How it was run: as §1

[5] = test system: human colon cancer cell strain HT29; assay: Cell growth inhibition test (MTT), HT29; type: cell-based; details: HT-29, 72 h, HT29, 3 days culture, read-out: concentration exhibiting anti-cell effect (GI50)
How it was run: as §2

| SMILES | IC50 [2] | GI50 [3] | GI50 [5] | inhibition at 10 mg/kg [1] | inhibition at 10 mg/kg [4] |
| --- | --- | --- | --- | --- | --- |
| C[C@H](O)C(=O)N1CCN(c2nc3c(N4CCOCC4)nc(-c4cnc(N)nc4)nc3n2CC(F)(F)F)C[C@H]1C [Example 110, (2S)-1-{(2R)-4-[2-(2-Aminopyrimidin-5-yl)-6-morpholin-4-yl-9-(2,2,2-trifluoroethyl)-9H-purin-8-yl]-2-methylpiperazin-1-yl}-1-oxopropan-2-ol] | < 0.01 µM | ≤ 5 µM | ≤ 5 µM | > 60% | > 90% |
| C[C@H]1CN(c2nc3c(N4CCOCC4)nc(-c4cnc(N)nc4)nc3n2CC(F)(F)F)CCN1C=O [Example 111, (2S)-4-[2-(2-Aminopyrimidin-5-yl)-6-morpholin-4-yl-9-(2,2,2-trifluoroethyl)-9H-purin-8-yl]-2-methylpiperazine-1-carboaldehyde] | < 0.01 µM | ≤ 5 µM | ≤ 5 µM | > 60% | > 90% |
| C[C@@H]1CN(c2nc3c(N4CCOCC4)nc(-c4cnc(N)nc4)nc3n2CC(F)(F)F)CCN1C=O [Example 112, (2R)-4-[2-(2-Aminopyrimidin-5-yl)-6-morpholin-4-yl-9-(2,2,2-trifluoroethyl)-9H-purin-8-yl]-2-methylpiperazine-1-carboaldehyde] | < 0.01 µM | ≤ 5 µM | ≤ 5 µM | > 60% | > 90% |
| C[C@@H](O)C(=O)N1CCN(c2nc3c(N4CCOCC4)nc(-c4cnc(N)nc4)nc3n2CC2CC2)C[C@@H]1C [Example 113, (2R)-1-{(2S)-4-[2-(2-Aminopyrimidin-5-yl)-9-(cyclopropylmethyl)-6-morpholin-4-yl-9H-purin-8-yl]-2-methylpiperazin-1-yl}-1-oxopropan-2-ol] | 0.01 to 0.02 µM | ≤ 5 µM | ≤ 5 µM | > 60% | > 90% |
| C[C@@H]1CN(c2nc3c(N4CCOCC4)nc(-c4cnc(N)nc4)nc3n2CC2CC2)CCN1C(=O)[C@@H](C)O [Example 114, (2R)-1-{(2R)-4-[2-(2-Aminopyrimidin-5-yl)-9-(cyclopropylmethyl)-6-morpholin-4-yl-9H-purin-8-yl]-2-methylpiperazin-1-yl}-1-oxopropan-2-ol] | < 0.01 µM | ≤ 5 µM | ≤ 5 µM | > 60% | > 90% |
| CC(=O)N1[C@H](C)CN(c2nc3c(N4CCOCC4)nc(-c4cnc(N)nc4)nc3n2CC(F)(F)F)C[C@@H]1C [Example 115, 5-[8-(4-Acetyl-cis-3,5-dimethylpiperazin-1-yl)-6-morpholin-4-yl-9-(2,2,2-trifluoroethyl)-9H-purin-2-yl]pyrimidin-2-amine] | < 0.01 µM | ≤ 5 µM | ≤ 5 µM | > 60% | > 90% |
| C[C@@H]1CN(c2nc3c(N4CCOCC4)nc(-c4cnc(N)nc4)nc3n2CC(F)(F)F)C[C@H](C)N1C=O [Example 116, 4-[2-(2-Aminopyrimidin-5-yl)-6-morpholin-4-yl-9-(2,2,2-trifluoroethyl)-9H-purin-8-yl]-cis-2,6-dimethylpiperazine-1-carboaldehyde] | < 0.01 µM | ≤ 5 µM | ≤ 5 µM | > 60% | > 90% |
| CCC(=O)N1CCN(c2nc3c(N4CCOCC4)nc(-c4cnc(N)nc4)nc3n2CC(F)(F)F)CC1 [Example 117, 5-[6-Morpholin-4-yl-8-(4-propionylpiperazin-1-yl)-9-(2,2,2-trifluoroethyl)-9H-purin-2-yl]pyrimidin-2-amine] | < 0.01 µM | ≤ 5 µM | ≤ 5 µM | 30 to 60% | 70 to 90% |

Now from value to molecule, other results behind:

| IC50 [2] | GI50 [3] | GI50 [5] | SMILES | inhibition at 10 mg/kg [1] | inhibition at 10 mg/kg [4] |
| --- | --- | --- | --- | --- | --- |
| < 0.01 µM | ≤ 5 µM | ≤ 5 µM | CC(=O)N1CCN(c2nc3c(N4CCOCC4)nc(-c4cnc(N)nc4)nc3n2CC(F)(F)F)CC12CC2 [Example 119, 5-[8-(4-Acetyl-4,7-diazaspiro[2.5]oct-7-yl)-6-morpholin-4-yl-9-(2,2,2-trifluoroethyl)-9H-purin-2-yl]pyrimidin-2-amine] | 30 to 60% | > 90% |
| 0.01 to 0.02 µM | ≤ 5 µM | ≤ 5 µM | CC(C)Cn1c(N2CCN(C(=O)CO)CC2)nc2c(N3CCOC[C@@H]3C)nc(-c3cnc(N)nc3)nc21 [Example 130, 2-(4-{2-(2-Aminopyrimidin-5-yl)-9-isobutyl-6-[(3S)-3-methylmorpholin-4-yl]-9H-purin-8-yl}piperazin-1-yl)-2-oxoethanol] | 30 to 60% | > 90% |
| 0.01 to 0.02 µM | ≤ 5 µM | ≤ 5 µM | CC(C)Cn1c(N2CCN(C(=O)[C@H](C)O)CC2)nc2c(N3CCOC[C@@H]3C)nc(-c3cnc(N)nc3)nc21 [Example 131, (2S)-1-(4-{2-(2-Aminopyrimidin-5-yl)-9-isobutyl-6-[(3S)-3-methylmorpholin-4-yl]-9H-purin-8-yl}piperazin-1-yl)-1-oxopropan-2-ol] | > 60% | > 90% |
| < 0.01 µM | ≤ 5 µM | ≤ 5 µM | CC(C)Cn1c(N2CCN(C=O)CC2)nc2c(N3CCOC[C@@H]3C)nc(-c3cnc(N)nc3)nc21 [Example 132, 4-{2-(2-Aminopyrimidin-5-yl)-9-isobutyl-6-[(3S)-3-methylmorpholin-4-yl]-9H-purin-8-yl}piperazine-1-carboaldehyde] | > 60% | > 90% |
| < 0.01 µM | ≤ 5 µM | ≤ 5 µM | CNc1ncc(-c2nc(N3CCOCC3)c3nc(N4CCN(C(C)=O)CC4)n(CC(F)(F)F)c3n2)cn1 [Example 134, 5-[8-(4-Acetylpiperazin-1-yl)-6-morpholin-4-yl-9-(2,2,2-trifluoroethyl)-9H-purin-2-yl]-N-methylpyrimidin-2-amine] | 30 to 60% | > 90% |
